Test results: ChEMBL document CHEMBL5131449, “Synthetic Biology-Based Discovery of Diterpenoid Pyrones from the Genome of Eupenicillium shearii” (J Nat Prod, 2022)
Active and inactive are the calls of the source. The calls are words filed in the database; no cut-off is given here.

Molecular target: Amyloid-beta precursor protein (Homo sapiens) (UniProt P05067)
Experiment: Inhibition of HFIP-pretreated amyloid beta (1 to 42) (unknown origin) aggregation assessed as suppression of amyloid beta aggregation at 50 uM incubated for 24 hrs by Thioflavin T based fluorescence assay
Assay type: cell-based

Chain of Amyloid-beta precursor protein (Homo sapiens) (P05067 whole entry): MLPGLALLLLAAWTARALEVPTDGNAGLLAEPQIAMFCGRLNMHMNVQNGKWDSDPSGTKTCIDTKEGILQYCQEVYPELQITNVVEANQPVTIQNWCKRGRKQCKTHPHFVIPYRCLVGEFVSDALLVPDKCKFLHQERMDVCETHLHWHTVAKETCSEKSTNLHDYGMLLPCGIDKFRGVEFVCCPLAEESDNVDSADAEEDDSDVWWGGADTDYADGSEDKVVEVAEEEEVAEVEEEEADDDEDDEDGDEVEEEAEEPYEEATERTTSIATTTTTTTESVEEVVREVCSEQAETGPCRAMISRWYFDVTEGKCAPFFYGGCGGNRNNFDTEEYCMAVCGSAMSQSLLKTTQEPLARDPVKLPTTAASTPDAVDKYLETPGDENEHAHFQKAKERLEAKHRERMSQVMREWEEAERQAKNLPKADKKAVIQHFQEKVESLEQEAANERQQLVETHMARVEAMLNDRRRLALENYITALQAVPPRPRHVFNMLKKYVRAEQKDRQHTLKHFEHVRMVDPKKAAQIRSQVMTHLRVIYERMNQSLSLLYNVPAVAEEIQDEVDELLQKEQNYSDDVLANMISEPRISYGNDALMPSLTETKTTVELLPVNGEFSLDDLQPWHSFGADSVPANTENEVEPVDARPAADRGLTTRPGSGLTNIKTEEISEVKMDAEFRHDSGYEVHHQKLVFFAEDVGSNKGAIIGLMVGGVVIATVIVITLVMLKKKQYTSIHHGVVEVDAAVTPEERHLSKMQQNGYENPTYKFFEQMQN

inhibition, active:
Cc1oc(=O)c2c(c1C)O[C@@]1(C)[C@H](O)[C@H](O)[C@@H]3[C@@]4(C)CCC(=O)C(C)(C)[C@@H]4CC[C@@]3(C)[C@@H]1C2, Cc1oc(=O)c2c(c1C)O[C@@]1(C)[C@H](O)[C@H](O)[C@H]3[C@@](C)(CC[C@H]4C(C)(C)[C@@]5(O)CC[C@@]43CO5)[C@@H]1C2, Cc1oc(=O)c2c(c1C)O[C@@]1(C)[C@H](O)[C@H](O)[C@H]3[C@@](C)(CC[C@H]4C(C)(C)[C@@H](O)CC[C@@]43CO)[C@@H]1C2
